16 compounds from PubChem BioAssay AID256 (DTP/NCI, 2004) can be followed below.

The experiment relates to CD2F1 mice, L1210 leukemia ip, survival T/C. Description: NCI In Vivo Anticancer Drug Screen. Data for tumor model L1210 Leukemia (intraperitoneal) in CD2F1 (CDF1) mice. The settings on record: higher = longer survival. The method in brief: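 Vehicle-treated tumor-bearing mice served as controls (C) for compound-treated mice (T). Reported figure is T divided by C.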
[1] abbreviates: endpoint: mean survival time, dose: 100.0 mg/kg/injection, schedule: Q01DX001 (ip), vehicle: saline.
[2] abbreviates: endpoint: mean survival time, dose: 200.0 mg/kg/injection, schedule: Q01DX001 (ip), vehicle: saline.
Where [3] appears, read: endpoint: mean survival time, dose: 400.0 mg/kg/injection, schedule: Q01DX001 (ip), vehicle: saline.
The mark [4] stands for this setting: endpoint: mean survival time, dose: 100.0 mg/kg/injection, schedule: Q01DX009 (ip), vehicle: saline with Tween-80.
Where [5] appears, read: endpoint: mean survival time, dose: 200.0 mg/kg/injection, schedule: Q01DX009 (ip), vehicle: saline with Tween-80.

Inconclusive results and toxic doses are left out.

Regarding `Cc1ccc([N+](=O)[O-])cc1NC(=O)Nc1cc([N+](=O)[O-])ccc1F`, the T/C is, setting by setting: (endpoint: mean survival time, dose: 50.0 mg/kg/injection, schedule: Q01DX009 (ip), vehicle: Klucel (hydroxypropylcellulose) (HPC)) 112 % of control; (endpoint: mean survival time, dose: 100.0 mg/kg/injection, schedule: Q01DX009 (ip), vehicle: Klucel (hydroxypropylcellulose) (HPC)) 101 % of control; (endpoint: mean survival time, dose: 200.0 mg/kg/injection, schedule: Q01DX009 (ip), vehicle: Klucel (hydroxypropylcellulose) (HPC)) 101 % of control.
As for `CC1CC(C)(C)CC(=O)O1` (stereo not drawn), the T/C (endpoint: mean survival time, dose: 75.0 mg/kg/injection, schedule: Q01DX001 (ip), vehicle: saline) was 101 % of control.
In the case of `COc1cccnc1/C=N/NC(N)=S`, the T/C was 118 % of control (endpoint: mean survival time, dose: 3.13 mg/kg/injection, schedule: Q01DX009 (ip), vehicle: saline with Tween-80); 103 % of control (endpoint: mean survival time, dose: 5.54 mg/kg/injection, schedule: Q01DX001 (ip), vehicle: saline with Tween-80); 200 % of control (endpoint: mean survival time, dose: 5.54 mg/kg/injection, schedule: Q01DX009 (ip), vehicle: saline with Tween-80); 102 % of control (endpoint: mean survival time, dose: 5.54 mg/kg/injection, schedule: Q04DX001 (ip), vehicle: saline with Tween-80); 104 % of control (endpoint: mean survival time, dose: 6.25 mg/kg/injection, schedule: Q04DX002 (ip), vehicle: saline with Tween-80); 105 % of control (endpoint: mean survival time, dose: 8.32 mg/kg/injection, schedule: Q01DX001 (ip), vehicle: saline with Tween-80). Moreover, the T/C reads like this: (endpoint: mean survival time, dose: 8.32 mg/kg/injection, schedule: Q01DX009 (ip), vehicle: saline with Tween-80) 162 % of control; (endpoint: mean survival time, dose: 8.32 mg/kg/injection, schedule: Q04DX001 (ip), vehicle: saline with Tween-80) 105 % of control; (endpoint: mean survival time, dose: 12.5 mg/kg/injection, schedule: Q01DX001 (ip), vehicle: saline with Tween-80) 109 % of control; (endpoint: mean survival time, dose: 12.5 mg/kg/injection, schedule: Q01DX009 (ip), vehicle: saline with Tween-80) 152 % of control; (endpoint: mean survival time, dose: 12.5 mg/kg/injection, schedule: Q04DX001 (ip), vehicle: saline with Tween-80) 111 % of control; (endpoint: mean survival time, dose: 12.5 mg/kg/injection, schedule: Q04DX002 (ip), vehicle: saline with Tween-80) 104 % of control. Further, the T/C reads like this: (endpoint: mean survival time, dose: 18.8 mg/kg/injection, schedule: Q01DX001 (ip), vehicle: saline with Tween-80) 109 % of control; (endpoint: mean survival time, dose: 18.8 mg/kg/injection, schedule: Q04DX001 (ip), vehicle: saline with Tween-80) 105 % of control.
`CC1(C#N)CCC(=O)N1` (stereo not drawn): the T/C reads like this: under setting [1], 95 % of control; under setting [2], 95 % of control; under setting [3], 93 % of control.
In the case of `CC(=O)OCC1OC([n+]2c([O-])cc(=O)n3ccsc32)C(OC(C)=O)C1OC(C)=O` (stereo not drawn), the T/C reads like this: (endpoint: median survival time, dose: 11.25 mg/kg/injection, schedule: Q01DX005 (ip), vehicle: water) 101 % of control; (endpoint: median survival time, dose: 12.5 mg/kg/injection, schedule: Q01DX005 (ip), vehicle: distilled water + Tween-80) 103 % of control; (endpoint: median survival time, dose: 22.5 mg/kg/injection, schedule: Q01DX005 (ip), vehicle: water) 100 % of control; (endpoint: median survival time, dose: 25.0 mg/kg/injection, schedule: Q01DX005 (ip), vehicle: distilled water + Tween-80) 98 % of control; (endpoint: median survival time, dose: 45.0 mg/kg/injection, schedule: Q01DX005 (ip), vehicle: water) 108 % of control; (endpoint: median survival time, dose: 50.0 mg/kg/injection, schedule: Q01DX005 (ip), vehicle: distilled water + Tween-80) 98 % of control. For the same compound, the T/C (endpoint: median survival time, dose: 90.0 mg/kg/injection, schedule: Q01DX005 (ip), vehicle: water) is 114 % of control; the T/C (endpoint: median survival time, dose: 100.0 mg/kg/injection, schedule: Q01DX005 (ip), vehicle: distilled water + Tween-80) was 102 % of control; the T/C (endpoint: median survival time, dose: 180.0 mg/kg/injection, schedule: Q01DX005 (ip), vehicle: water) is 101 % of control; the T/C (endpoint: median survival time, dose: 200.0 mg/kg/injection, schedule: Q01DX005 (ip), vehicle: distilled water + Tween-80) was 95 % of control.
Take `CN(CSc1ccc(Cl)cc1)c1ccccc1`: the T/C reads like this: (endpoint: mean survival time, dose: 50.0 mg/kg/injection, schedule: Q01DX009 (ip), vehicle: saline with Tween-80) 96 % of control; under setting [4], 96 % of control; under setting [5], 96 % of control.
`O=CNc1cccc2ccc3c4ccccc4ccc3c12`: the T/C is 98 % of control (endpoint: mean survival time, dose: 100.0 mg/kg/injection, schedule: Q04DX003 (ip), vehicle: saline with Tween-80) and 91 % of control (endpoint: mean survival time, dose: 400.0 mg/kg/injection, schedule: Q04DX003 (ip), vehicle: saline with Tween-80).
For the compound `CCC1Cc2c([nH]c(=O)n(-c3ccccc3)c2=O)O1` (stereo not drawn), the T/C is, setting by setting: under setting [1], 95 % of control; under setting [2], 98 % of control; under setting [3], 92 % of control.
On to `CCOC(=O)NCNC(C)C(=O)O` (stereo not drawn), for which the T/C runs as follows: (endpoint: mean survival time, dose: 50.0 mg/kg/injection, schedule: Q01DX009 (ip), vehicle: saline) 115 % of control; (endpoint: mean survival time, dose: 100.0 mg/kg/injection, schedule: Q01DX009 (ip), vehicle: saline) 104 % of control; (endpoint: mean survival time, dose: 200.0 mg/kg/injection, schedule: Q01DX009 (ip), vehicle: saline) 115 % of control.
Regarding `C/C=C1\C[C@@H]2C(OC)Nc3cc(O)c(OC)cc3C(=O)N2C1` (stereo partly drawn), the T/C was 103 % of control (endpoint: mean survival time, dose: 0.03 mg/kg/injection, schedule: Q01DX009 (ip), vehicle: saline); 102 % of control (endpoint: mean survival time, dose: 0.03 mg/kg/injection, schedule: Q01DX009 (ip), vehicle: suspension in saline); 104 % of control (endpoint: mean survival time, dose: 0.06 mg/kg/injection, schedule: Q01DX009 (ip), vehicle: saline); 101 % of control (endpoint: mean survival time, dose: 0.06 mg/kg/injection, schedule: Q01DX009 (ip), vehicle: suspension in saline); 109 % of control (endpoint: mean survival time, dose: 0.12 mg/kg/injection, schedule: Q01DX009 (ip), vehicle: saline); 108 % of control (endpoint: mean survival time, dose: 0.12 mg/kg/injection, schedule: Q01DX009 (ip), vehicle: suspension in saline). Also, the T/C reads like this: (endpoint: mean survival time, dose: 0.25 mg/kg/injection, schedule: Q01DX009 (ip), vehicle: saline) 106 % of control; (endpoint: mean survival time, dose: 0.25 mg/kg/injection, schedule: Q01DX009 (ip), vehicle: suspension in saline) 120 % of control; (endpoint: mean survival time, dose: 0.5 mg/kg/injection, schedule: Q01DX009 (ip), vehicle: saline) 118 % of control; (endpoint: mean survival time, dose: 0.5 mg/kg/injection, schedule: Q01DX009 (ip), vehicle: suspension in saline) 123 % of control; (endpoint: mean survival time, dose: 0.75 mg/kg/injection, schedule: Q04DX002 (ip), vehicle: saline) 106 % of control; (endpoint: mean survival time, dose: 1.0 mg/kg/injection, schedule: Q01DX009 (ip), vehicle: saline) 110 % of control. Besides, the T/C reads like this: (endpoint: mean survival time, dose: 1.0 mg/kg/injection, schedule: Q01DX009 (ip), vehicle: suspension in saline) 92 % of control; (endpoint: mean survival time, dose: 1.5 mg/kg/injection, schedule: Q04DX002 (ip), vehicle: saline) 114 % of control.
In the case of `O=C1Cc2c([nH]c(=S)[nH]c2=O)N1`, the T/C (endpoint: median survival time, dose: 50.0 mg/kg/injection, schedule: Q01DX005 (ip), vehicle: saline) is 94 % of control; the T/C (endpoint: median survival time, dose: 100.0 mg/kg/injection, schedule: Q01DX005 (ip), vehicle: saline) is 102 % of control; the T/C (endpoint: median survival time, dose: 200.0 mg/kg/injection, schedule: Q01DX005 (ip), vehicle: saline) was 101 % of control.
`COC[C@H]1OC(=O)c2coc3c2[C@@]1(C)C1=C(C3=O)[C@@H]2CCC(=O)[C@@]2(C)C[C@H]1OC(C)=O`: the T/C runs as follows: (endpoint: mean survival time, dose: 0.16 mg/kg/injection, schedule: Q01DX009 (ip), vehicle: saline) 102 % of control; (endpoint: mean survival time, dose: 0.31 mg/kg/injection, schedule: Q01DX009 (ip), vehicle: saline) 98 % of control; (endpoint: mean survival time, dose: 0.63 mg/kg/injection, schedule: Q01DX009 (ip), vehicle: saline) 102 % of control; (endpoint: mean survival time, dose: 1.25 mg/kg/injection, schedule: Q01DX009 (ip), vehicle: saline with Tween-80) 86 % of control; (endpoint: mean survival time, dose: 1.25 mg/kg/injection, schedule: Q01DX009 (ip), vehicle: saline) 110 % of control.
For `CC1OC(OCC2OC(Oc3c(-c4ccc(O)c(O)c4)oc4cc(O)cc(O)c4c3=O)C(O)C(O)C2O)C(O)C(O)C1O` (stereo not drawn), the T/C is, setting by setting: under setting [1], 100 % of control; under setting [2], 102 % of control; under setting [3], 100 % of control.
On to `O=C(CC(=O)OCc1ccc([N+](=O)[O-])cc1)OCc1ccc([N+](=O)[O-])cc1`, for which the T/C is 96 % of control (endpoint: mean survival time, dose: 200.0 mg/kg/injection, schedule: Q01DX001 (ip), vehicle: Klucel (hydroxypropylcellulose) (HPC)) and 93 % of control (endpoint: mean survival time, dose: 400.0 mg/kg/injection, schedule: Q01DX001 (ip), vehicle: Klucel (hydroxypropylcellulose) (HPC)).
On to `C1OC1CO[C@@H]1CO[C@H]2[C@@H]1OC[C@H]2OCC1CO1` (stereo partly drawn), for which the T/C (endpoint: mean survival time, dose: 12.5 mg/kg/injection, schedule: Q01DX009 (ip), vehicle: suspension in saline) was 100 % of control.
As for `Cc1ccccc1NC(=S)Nc1ccccn1`, the T/C runs as follows: under setting [4], 95 % of control; under setting [5], 98 % of control; (endpoint: mean survival time, dose: 400.0 mg/kg/injection, schedule: Q01DX009 (ip), vehicle: saline with Tween-80) 93 % of control.
